Source: patent US7396837B2, “Antitumoral analogs of lamellarins” (Pharma Mar, S.A.U., priority 2002, dated 2008)

Columns and labels:
Assay type in all cases: cell-based
[1] = tested on: HT-29; experiment: SRB colorimetric cell growth inhibition assay, HT-29; conditions: Homo sapiens
Method in brief: (§1)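 Cancer cells grown in vitro were continuously treated with compound. Cell mass was then determined by SRB staining and expressed as growth inhibition.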

[2] = tested on: LoVo; experiment: SRB colorimetric cell growth inhibition assay, LoVo; conditions: Homo sapiens, LoVo
Method in brief: as §1

[3] = tested on: DU-145; experiment: SRB colorimetric cell growth inhibition assay, DU-145; conditions: Homo sapiens
Method in brief: as §1

[4] = SRB colorimetric cell growth inhibition assay, H-MEC-1; conditions: human, LC50 H-MEC-1
Description: (§2) Inhibition of Cell Growth by Colorimetric Assay.
(§3) A colorimetric type of assay, using sulforhodamine B (SRB) reaction has been adapted for a quantitative measurement of cell growth and viability (following the technique described by P. A. Skehan, et al., J. Natl. Cancer Inst. 1990, 82, 1107-1112).
(§4) This form of assay employs 96 well cell culture microplates of 9 mm diameter (T. Mosmann et al., J. of Immunological Methods 1983, 65, 55-63; G. T. Faircloth et al., J. of Tissue and Culture Methods 1988, 11, 201-205).
(§5) Most of the cell lines are obtained from American Type Culture Collection (ATCC) derived from different human cancer types.
(§6) The values for mean +/− SD of data from triplicate wells are calculated. Some parameters for cellular responses can be calculated: GI=growth inhibition, TGI=total growth inhibition (cytostatic effect) and LC=cell killing (cytotoxic effect).

[5] = tested on: H-MEC-1; experiment: as above; conditions: Homo sapiens, HMEC-1, H-MEC-1
Description: as §2, §3, §4, §5, §6

[6] = tested on: PANC-1; experiment: SRB colorimetric cell growth inhibition assay, PANC-1; conditions: Homo sapiens
Method in brief: as §1

[7] = tested on: IGROV; experiment: SRB colorimetric cell growth inhibition assay, IGROV; conditions: Homo sapiens, IGROV
Method in brief: as §1

[8] = tested on: LNCaP; experiment: SRB colorimetric cell growth inhibition assay, LNCaP; conditions: Homo sapiens, LNCaP
Method in brief: as §1

[9] = tested on: A-549; experiment: SRB colorimetric cell growth inhibition assay, A-549; conditions: Homo sapiens
Method in brief: as §1

[10] = tested on: SK-MEL-28; experiment: SRB colorimetric cell growth inhibition assay, SK-MEL-28; conditions: Homo sapiens
Method in brief: as §1

[11] = tested on: LoVo-Dox; experiment: SRB colorimetric cell growth inhibition assay, LoVo-Dox (MDR); conditions: Homo sapiens
Method in brief: as §1

[12] = tested on: IGROV-ET; experiment: SRB colorimetric cell growth inhibition assay, IGROV-ET (ET-743 resistant); conditions: Homo sapiens
Method in brief: as §1

[13] = tested on: K-562; experiment: SRB colorimetric cell growth inhibition assay, K-562; conditions: Homo sapiens
Method in brief: as §1

COc1cc(-c2c3n(c4c(=O)oc5cc(OC(=O)[C@@H](N)C(C)C)c(OC)cc5c24)CCc2c-3cc(OC)c(OC)c2OC(=O)[C@@H](N)C(C)C)ccc1OC(=O)[C@@H](N)C(C)C [Compound 128]
GI50 ([1]; HT-29, HT-29, GI=growth inhibition, read-out: GI50 HT-29): 1950 nM
IC (TGI) ([1]; HT-29, HT-29, total growth inhibition (cytostatic effect), read-out: TGI HT-29): 3540 nM
CC50 ([1]; HT-29, read-out: LC50 HT-29, HT-29, cell killing (cytotoxic effect)): 6440 nM
CC50 ([2]; read-out: LC50 LOVO, LOVO, cell killing (cytotoxic effect)): 4300 nM
GI50 ([2]; GI=growth inhibition, read-out: GI50 LOVO): 854 nM
IC (TGI) ([2]; total growth inhibition (cytostatic effect), read-out: TGI LOVO): 1920 nM
GI50 ([3]; DU-145, DU-145, GI=growth inhibition, read-out: GI50 DU-145): 1330 nM
IC (TGI) ([3]; DU-145, DU-145, TGI=total growth inhibition (cytostatic effect), read-out: TGI DU-145): 2480 nM
CC50 ([3]; DU-145, read-out: LC50 DU-145, DU-145, LC=cell killing (cytotoxic effect)): 4620 nM
CC50 [4]: 6530 nM
GI50 ([5]; GI=growth inhibition): 1530 nM
IC (TGI) ([5]; TGI=total growth inhibition (cytostatic effect), read-out: TGI H-MEC-1): 3160 nM
GI50 ([6]; PANC-1, PANC-1, GI=growth inhibition, read-out: GI50 PANC-1): 888 nM
IC (TGI) ([6]; PANC-1, PANC-1, total growth inhibition (cytostatic effect), read-out: TGI PANC-1): 2310 nM
CC50 ([6]; PANC-1, read-out: LC50 PANC-1, PANC-1, cell killing (cytotoxic effect)): 5990 nM
CC50 ([7]; read-out: LC50 IGROV, IGROV, LC=cell killing (cytotoxic effect)): 5700 nM
GI50 ([7]; GI=growth inhibition, read-out: GI50 IGROV): 639 nM
IC (TGI) ([7]; TGI=total growth inhibition (cytostatic effect), read-out: TGI IGROV): 1980 nM
GI50 ([8]; LN-caP, GI=growth inhibition, read-out: GI50 LN-caP): 1260 nM
IC (TGI) ([8]; LN-caP, TGI=total growth inhibition (cytostatic effect), read-out: TGI LN-caP): 2690 nM
CC50 ([8]; read-out: LC50 LN-caP, LN-caP, LC=cell killing (cytotoxic effect)): 5710 nM
GI50 ([9]; A549, A-549, GI=growth inhibition, read-out: GI50 A-549): 1610 nM
IC (TGI) ([9]; A549, A-549, total growth inhibition (cytostatic effect), read-out: TGI A-549): 3230 nM
CC50 ([9]; A549, read-out: LC50 A-549, A-549, cell killing (cytotoxic effect)): 6450 nM
GI50 ([10]; SK-MEL-28, MEL-28, GI=growth inhibition, read-out: GI50 MEL-28): 1570 nM
IC (TGI) ([10]; SK-MEL-28, MEL-28, TGI=total growth inhibition (cytostatic effect), read-out: TGI MEL-28): 3030 nM
CC50 ([10]; SK-MEL-28, read-out: LC50 MEL-28, MEL-28, LC=cell killing (cytotoxic effect)): 5860 nM
GI50 ([11]; LOVO-DOX, GI=growth inhibition, read-out: GI50 LOVO-DOX): 403 nM
IC (TGI) ([11]; LOVO-DOX, total growth inhibition (cytostatic effect), read-out: TGI LOVO-DOX): 1490 nM
CC50 ([11]; read-out: LC50 LOVO-DOX, LOVO-DOX, cell killing (cytotoxic effect)): 4660 nM
GI50 ([12]; IGROV-ET, GI=growth inhibition, read-out: GI50 IGROV-ET): 689 nM
IC (TGI) ([12]; IGROV-ET, TGI=total growth inhibition (cytostatic effect), read-out: TGI IGROV-ET): 2260 nM
CC50 ([12]; read-out: LC50 IGROV-ET, IGROV-ET, LC=cell killing (cytotoxic effect)): 7590 nM
GI50 ([13]; K562, K-562, GI=growth inhibition, read-out: GI50 K-562): 1110 nM
IC (TGI) ([13]; K562, K-562, total growth inhibition (cytostatic effect), read-out: TGI K-562): 2980 nM
CC50 ([13]; K562, read-out: LC50 K-562, K-562, cell killing (cytotoxic effect)): 8010 nM
